Consider four molecules from ChEMBL document CHEMBL3585315, “Discovery of mammalian target of rapamycin (mTOR) kinase inhibitor CC-223” (J Med Chem, 2015).

Molecules are shown by their SMILES.

A short description of series [1]: Metabolic stability in rat S9 fraction assessed as compound remaining measured at 60 mins. The class given is ADME. To be noted: read-out: Stability.
A short description of series [2]: Clearance in rat at 2 mg/kg, iv. The class given is ADME, organism-based. To be noted: in vivo.
Series [3] can be described thus: Cmax in rat at 5 mg/kg, po. Also on record: dose 5 mg/kg, route oral. The class given is ADME, organism-based. To be noted: in vivo.
Series [4] is described as follows: Tmax in rat at 5 mg/kg, po. The class given is ADME, organism-based. To be noted: in vivo.
Series [5] can be described thus: AUC (0 to infinity) in rat at 5 mg/kg, po. Format: ADME, organism-based. Also on record: dose 5 mg/kg, time infinity, route oral. Conditions: in vivo; call rule not given here.
Series [6] in a line: Oral bioavailability in rat at 5 mg/kg. Format: ADME, organism-based. To be noted: in vivo.
For series [7], the system named is PC-3. As to the kind of experiment: Antitumor activity against human PC3 cells xenografted in mouse assessed as tumor volume reduction at 100 mg/kg, po bid with 10 hrs separation between morning and evening doses for 21 days relative to control. Format: functional. Also on record: scale not given: the % may be the effect or the level left. Background: Xenograft models place foreign cells or tissue in a host animal.

The subject of series [8] is PC-3. Conditions: Homo sapiens.
For series [9], the system named is PC-3. Conditions: Homo sapiens, TDE = time-dependent effect.
The next series in a line: cells. Conditions: Homo sapiens, PC-3, 1 h.
For series [10], the species on record is Mus musculus. The experiment in a line: animal or person. To be noted: PC-3, po, 2 h, read-out: INH.
Series [11] is filed under the species Mus musculus. The experiment in a line: animal or person. Conditions: PC-3, po, 2 h, read-out: INH. The source holds these as a separate data set.
The species entered for series [12] is Mus musculus. The experiment in a line: animal or person. To be noted: PC-3, po, 4 h, read-out: INH.
The species named for series [13] is Mus musculus. The experiment in a line: animal or person. Conditions: PC-3, po, 8 h, read-out: INH.
For series [14], the species on record is Mus musculus. As to the kind of experiment: animal or person. To be noted: PC-3, po, 24 h, read-out: INH.
Series [15] is filed under the species Mus musculus. The experiment in a line: animal or person. Conditions: PC-3, po, 4 h, read-out: INH. This is another data set of the same source.
Series [16] is filed under the species Mus musculus. As to the kind of experiment: animal or person. Conditions: PC-3, po, 8 h, read-out: INH. This is another data set of the same source.
The species named for series [17] is Mus musculus. The experiment in a line: animal or person. Conditions: PC-3, po, 24 h, read-out: INH. This is another data set of the same source.
The target in series [18] is Serine/threonine-protein kinase mTOR (Homo sapiens, UniProt P42345). As to the kind of experiment: Inhibition of recombinant mTOR (unknown origin) using GST-p70S6 as substrate after 60 mins by TR-FRET analysis.
Series [19] concerns the target Phosphatidylinositol 4,5-bisphosphate 3-kinase catalytic subunit alpha isoform (Homo sapiens, UniProt P42336). The experiment in a line: Inhibition of PI3K-alpha (unknown origin) by mobility shift assay.
Series [20] can be described thus: Inhibition of mTORC2 in human PC3 cells assessed as inhibition of AKT phosphorylation at S473 by sandwich immunoassay. The class given is cell-based. To be noted: PC-3.
Series [21] concerns PC-3. As to the kind of experiment: Cytotoxicity against human PC3 cells assessed as inhibition of cell proliferation after 3 days by WST1 assay. The class given is functional, cell-based. To be noted: PC-3, 72 h. A general note: Tetrazolium dyes change colour on reduction, which living cells bring about.
Series [22] is described as follows: Cmax in rat at 10 mg/kg, po. The class given is ADME, organism-based. Also on record: dose 10 mg/kg, route oral. Conditions: in vivo.
The nature of series [23]: Tmax in rat at 10 mg/kg, po. Format: ADME, organism-based. Conditions: in vivo.
The nature of series [24]: AUC (0 to infinity) in rat at 10 mg/kg, po. Conditions: in vivo. Format: ADME, organism-based. Also noted: dose 10 mg/kg, route oral, time infinity.
The nature of series [25]: Oral bioavailability in rat at 10 mg/kg. The class given is ADME, organism-based. To be noted: in vivo.
Series [26] deals with PC-3. The experiment in a line: Antitumor activity against human PC3 cells xenografted in mouse assessed as tumor volume reduction at 25 mg/kg, po qd for 21 days relative to control. Also on record: scale not given: the % may be the effect or the level left. Format: functional.
Series [27] has as its target Vascular endothelial growth factor receptor 3 (Homo sapiens, UniProt P35916). The experiment in a line: Inhibition of Flt4 (unknown origin).
The nature of series [28]: Inhibition of CYP450 (unknown origin) up to 10 uM. Format: ADME. To be noted: human.
The subject of another series is Salmonella typhi. As to the kind of experiment: Mutagenicity in Salmonella typhi by Ames test. Conditions: salmonella enterica subsp. enterica serovar […]. The class given is toxicity, organism-based. (In general: In the Ames test, an excess of revertant colonies over the control signals mutagenicity.)
Series [29] can be described thus: Genotoxicity in mouse erythrocytes by micronucleus test. The class given is toxicity, cell-based. Conditions: erythrocyte.
Series [30] relates to PC-3. To be noted: Homo sapiens. This is another data set of the same source.
Series [31] relates to PC-3. To be noted: Homo sapiens, TDE = time-dependent effect. This is another data set of the same source.

Chain of Phosphatidylinositol 4,5-bisphosphate 3-kinase catalytic subunit alpha isoform (P42336 whole entry, canonical isoform): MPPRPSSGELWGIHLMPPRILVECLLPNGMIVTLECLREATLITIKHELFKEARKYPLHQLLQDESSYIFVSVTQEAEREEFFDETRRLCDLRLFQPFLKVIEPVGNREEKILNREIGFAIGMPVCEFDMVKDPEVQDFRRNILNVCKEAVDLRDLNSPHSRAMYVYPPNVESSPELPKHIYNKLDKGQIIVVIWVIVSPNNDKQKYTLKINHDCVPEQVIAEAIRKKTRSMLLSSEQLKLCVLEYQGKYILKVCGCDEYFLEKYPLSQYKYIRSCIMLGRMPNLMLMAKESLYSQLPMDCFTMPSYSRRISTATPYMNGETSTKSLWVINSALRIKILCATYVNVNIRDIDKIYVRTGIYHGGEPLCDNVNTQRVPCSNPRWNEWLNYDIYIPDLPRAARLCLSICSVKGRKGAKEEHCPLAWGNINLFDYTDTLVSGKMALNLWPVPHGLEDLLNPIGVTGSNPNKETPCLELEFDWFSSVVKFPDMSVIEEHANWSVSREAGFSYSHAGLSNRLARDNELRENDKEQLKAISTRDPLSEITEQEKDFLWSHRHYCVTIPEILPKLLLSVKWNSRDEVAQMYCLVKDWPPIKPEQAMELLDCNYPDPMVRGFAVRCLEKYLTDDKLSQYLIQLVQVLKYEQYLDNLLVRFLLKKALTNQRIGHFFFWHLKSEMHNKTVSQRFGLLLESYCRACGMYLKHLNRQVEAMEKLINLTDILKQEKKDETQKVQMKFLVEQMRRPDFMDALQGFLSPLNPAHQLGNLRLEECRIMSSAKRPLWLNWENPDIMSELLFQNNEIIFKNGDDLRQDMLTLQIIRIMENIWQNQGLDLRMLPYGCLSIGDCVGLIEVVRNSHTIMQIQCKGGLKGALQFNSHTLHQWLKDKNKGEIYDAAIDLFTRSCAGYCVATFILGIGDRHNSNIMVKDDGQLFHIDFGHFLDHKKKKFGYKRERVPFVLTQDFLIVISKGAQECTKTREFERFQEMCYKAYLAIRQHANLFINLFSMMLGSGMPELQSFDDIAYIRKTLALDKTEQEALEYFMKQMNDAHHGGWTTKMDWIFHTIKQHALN
Chain of Vascular endothelial growth factor receptor 3 (P35916 whole entry): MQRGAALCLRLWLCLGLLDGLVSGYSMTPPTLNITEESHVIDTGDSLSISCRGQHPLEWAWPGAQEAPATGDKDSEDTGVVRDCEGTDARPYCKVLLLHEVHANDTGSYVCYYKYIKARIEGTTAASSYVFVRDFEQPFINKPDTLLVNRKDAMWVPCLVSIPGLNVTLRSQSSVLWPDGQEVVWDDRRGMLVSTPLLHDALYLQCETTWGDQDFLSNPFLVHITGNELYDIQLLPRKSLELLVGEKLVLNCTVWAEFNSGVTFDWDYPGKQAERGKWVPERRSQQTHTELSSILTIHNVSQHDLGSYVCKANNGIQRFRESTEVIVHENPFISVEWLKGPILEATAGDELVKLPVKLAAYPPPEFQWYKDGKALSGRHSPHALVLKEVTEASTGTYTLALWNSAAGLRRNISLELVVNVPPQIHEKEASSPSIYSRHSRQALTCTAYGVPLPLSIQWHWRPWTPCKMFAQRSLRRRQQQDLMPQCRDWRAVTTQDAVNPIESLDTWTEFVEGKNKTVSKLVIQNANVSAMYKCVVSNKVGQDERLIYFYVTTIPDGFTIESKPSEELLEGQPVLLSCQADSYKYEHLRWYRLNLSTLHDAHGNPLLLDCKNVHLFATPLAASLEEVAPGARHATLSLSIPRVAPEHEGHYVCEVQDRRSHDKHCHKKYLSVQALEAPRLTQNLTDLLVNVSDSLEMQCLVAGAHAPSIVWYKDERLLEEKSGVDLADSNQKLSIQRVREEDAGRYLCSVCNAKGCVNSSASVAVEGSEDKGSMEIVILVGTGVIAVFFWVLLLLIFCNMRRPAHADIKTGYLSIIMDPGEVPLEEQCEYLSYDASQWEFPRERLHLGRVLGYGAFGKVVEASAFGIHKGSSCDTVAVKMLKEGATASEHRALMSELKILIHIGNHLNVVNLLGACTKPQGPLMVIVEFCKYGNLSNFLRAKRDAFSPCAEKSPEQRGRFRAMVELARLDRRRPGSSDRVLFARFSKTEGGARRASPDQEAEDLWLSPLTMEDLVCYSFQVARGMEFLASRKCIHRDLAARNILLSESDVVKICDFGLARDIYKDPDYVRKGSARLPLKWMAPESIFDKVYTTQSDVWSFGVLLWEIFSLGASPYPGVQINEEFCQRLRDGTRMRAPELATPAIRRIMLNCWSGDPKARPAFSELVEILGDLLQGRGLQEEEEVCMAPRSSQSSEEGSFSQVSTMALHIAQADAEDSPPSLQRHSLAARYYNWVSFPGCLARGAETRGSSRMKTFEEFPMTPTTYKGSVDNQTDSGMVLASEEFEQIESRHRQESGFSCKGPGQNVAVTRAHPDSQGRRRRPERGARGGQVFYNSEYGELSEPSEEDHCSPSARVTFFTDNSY

One may read the clearance as the volume of plasma or blood freed of the substance per unit of time. As usually defined, the Cmax is the highest concentration seen after dosing. A word on the Tmax: it is the time at which the peak concentration occurs. In general, AUC(0-inf) refers to total exposure, with the tail of the curve extrapolated. What is called bioavailability is dose-corrected exposure relative to a reference, in per cent. The IC50 is the concentration needed to halve the response being measured. In the case of `CC(C)(O)c1ccc(-c2cnc3c(n2)N(CCC2CCOCC2)CC(=O)N3)cn1`, the remaining at 1 h in series [1] turned out to be 95%. Further, in series [2], the clearance stood at 23 mL/min/kg. Moreover, the Cmax in series [3] turned out to be 1500 nM. Moreover, in series [4], the Tmax was found to be 1.5 h. In series [5], this molecule came in with an AUC(0-inf) of 11 µM·h. For the same molecule, the bioavailability in series [6] turned out to be 100%. The Activity with PC-3 [7] was 72%. Also, the values for the TGI result in the series on PC-3 [8] and in the series on PC-3 [9] were “Dose-dependent effect” and “tde”, respectively. The same molecule yielded a half-inhibitory concentration (IC50) in the series “cells” of 110 nM. Moreover, the inhibition in vivo at 100 mg/kg in the series filed under Mus musculus [10] is 87%; in the series listed under Mus musculus [11], 74%; in the series listed under Mus musculus [12] it was 63%; in the series listed under Mus musculus [13] it was 64%; in the series listed under Mus musculus [14] it was 0%; in the series listed under Mus musculus [15] it was 63%. Moreover, the inhibition in vivo at 100 mg/kg worked out at 67% in the series listed under Mus musculus [16] and 28% in the series filed under Mus musculus [17].
In the case of `CC(C)(O)c1ccc(-c2cnc3[nH]c(=O)n(CCC4CCOCC4)c3n2)cn1`, the IC50 in series [18] was 64 nM; in [19] it was more than 30000 nM; in series [20] it was 638 nM; with PC-3 [21], 2360 nM. For the same molecule, the remaining at 1 h in series [1] came to 91%. Moreover, the clearance in series [2] was determined as 15 mL/min/kg. Further, the Cmax in series [3] was 1800 nM. In series [4], the Tmax was determined as 0.5 h. In series [5], this molecule returned an area under the curve AUC(0-inf) of 4.8 µM·h. Further, the bioavailability in [6] turned out to be 43%.
For the molecule `O=c1[nH]c2ncc(-c3ccc(-c4nc[nH]n4)cc3)nc2n1CCC1CCOCC1`, the remaining at 1 h in series [1] worked out at 93%. In [22], this molecule returned a Cmax of 24 nM. Besides, the Tmax in [23] was 1 h. The AUC(0-inf) in [24] is 0.11 µM·h. Moreover, in series [25], the bioavailability came to 0.85%. For the same molecule, the clearance in series [2] came out at 32 mL/min/kg.
`CO[C@H]1CC[C@H](N2C(=O)CNc3ncc(-c4ccc(C(C)(C)O)nc4)nc32)CC1` [ONATASERTIB] returned a clearance in series [2] of 4.9 mL/min/kg. Further, in series [3], the concentration peaked (Cmax) at 2900 nM. The molecule also yielded an AUC(0-inf) in series [5] of 26 µM·h. The molecule also came in with a bioavailability in series [6] of 59%. Also, the figures for the Activity (in the series with PC-3 [26]; in the series with Salmonella typhi; in series [29]) were 87%, “Non-toxic” and “Non-toxic”, respectively. The same molecule came in with an IC50 in series [27] of 651 nM. In addition, the “inhibition (INH)” value in series [28] is “Not Active”. Besides, the values for the TGI result with PC-3 [30] and in the series on PC-3 [31] were “Dose-dependent effect” and “tde”, respectively. Besides, the inhibition in vivo at 100 mg/kg worked out at 91% in the series listed under Mus musculus [12]; 92% in the series filed under Mus musculus [13]; 91% in the series listed under Mus musculus [14]; 80% in the series filed under Mus musculus [15]; 82% in the series listed under Mus musculus [16]; 86% in the series listed under Mus musculus [17].
